Measurements taken from PubChem BioAssay AID248 (DTP/NCI, 2004).
Values joined by “and” are separate entries in the source; they are usually repeats but may differ in a detail not shown here. Identical values can stand only once. Inconclusive results and toxic doses are left out.

System: L1210 leukemia ip in BDF1 mice, survival T/C
Test: NCI In Vivo Anticancer Drug Screen. Data for tumor model L1210 Leukemia (intraperitoneal) in B6D2F1 (BDF1) mice
Conditions: endpoint: mean survival time, higher = longer survival
Method in brief: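 Read-out is survival time, reported as the treated-group measurement over the vehicle-control measurement.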

[1] = dose: 100.0 mg/kg/injection, schedule: Q01DX001 (ip), vehicle: saline
[2] = dose: 50.0 mg/kg/injection, schedule: Q01DX009 (ip), vehicle: saline

CC(C)(C)NN
T/C (dose: 5.0 mg/kg/injection, schedule: Q01DX001 (ip), vehicle: saline): 102 % of control
T/C (dose: 10.0 mg/kg/injection, schedule: Q01DX001 (ip), vehicle: saline): 104 % of control
T/C (dose: 20.0 mg/kg/injection, schedule: Q01DX001 (ip), vehicle: saline): 98 % of control
T/C (dose: 40.0 mg/kg/injection, schedule: Q01DX001 (ip), vehicle: saline): 94 % of control
T/C (dose: 80.0 mg/kg/injection, schedule: Q01DX001 (ip), vehicle: saline): 96 % of control
T/C [1]: 101 % of control

N#C/C(=N\Nc1ccc(S(=O)(=O)O)cc1)C(N)=O
T/C (dose: 100.0 mg/kg/injection, schedule: Q04DX003 (ip), vehicle: saline): 104 % of control
T/C (dose: 200.0 mg/kg/injection, schedule: Q04DX003 (ip), vehicle: saline): 100 % of control
T/C (dose: 400.0 mg/kg/injection, schedule: Q04DX003 (ip), vehicle: saline): 98 % of control

O=C1NC(c2c(Cl)cccc2Cl)Nc2ccccc21 (stereo not drawn)
T/C (dose: 100.0 mg/kg/injection, schedule: Q04DX003 (ip), vehicle: Klucel (hydroxypropylcellulose) (HPC)): 100 % of control
T/C (dose: 200.0 mg/kg/injection, schedule: Q04DX003 (ip), vehicle: Klucel (hydroxypropylcellulose) (HPC)): 100 % of control
T/C (dose: 400.0 mg/kg/injection, schedule: Q04DX003 (ip), vehicle: Klucel (hydroxypropylcellulose) (HPC)): 111 % of control

Nc1ccccc1SCCC(=O)O
T/C (dose: 37.5 mg/kg/injection, schedule: Q04DX003 (ip), vehicle: Klucel (hydroxypropylcellulose) (HPC)): 96 % of control
T/C (dose: 75.0 mg/kg/injection, schedule: Q01DX009 (ip), vehicle: saline with Tween-80): 106 % of control
T/C (dose: 75.0 mg/kg/injection, schedule: Q04DX003 (ip), vehicle: Klucel (hydroxypropylcellulose) (HPC)): 86 % of control
T/C (dose: 150.0 mg/kg/injection, schedule: Q01DX009 (ip), vehicle: saline with Tween-80): 105 % of control
T/C (dose: 150.0 mg/kg/injection, schedule: Q04DX003 (ip), vehicle: Klucel (hydroxypropylcellulose) (HPC)): 91 % of control
T/C (dose: 300.0 mg/kg/injection, schedule: Q01DX009 (ip), vehicle: saline with Tween-80): 98 % of control
T/C (dose: 300.0 mg/kg/injection, schedule: Q04DX003 (ip), vehicle: Klucel (hydroxypropylcellulose) (HPC)): 96 % of control

CC1(C)CN1P(=O)(N1CC1(C)C)N1CC1(C)C (stereo not drawn)
T/C (dose: 1.25 mg/kg/injection, schedule: Q01DX009 (ip), vehicle: saline): 105 % of control
T/C (dose: 2.5 mg/kg/injection, schedule: Q01DX009 (ip), vehicle: saline): 111 % of control
T/C (dose: 5.0 mg/kg/injection, schedule: Q01DX009 (ip), vehicle: saline): 107 % of control
T/C (dose: 6.0 mg/kg/injection, schedule: Q01DX009 (ip), vehicle: saline): 182 % of control
T/C (dose: 12.0 mg/kg/injection, schedule: Q01DX009 (ip), vehicle: saline): 151 % of control
T/C (dose: 20.0 mg/kg/injection, schedule: Q01DX009 (ip), vehicle: saline): 194 % of control
T/C (dose: 22.0 mg/kg/injection, schedule: Q01DX009 (ip), vehicle: saline): 222 % of control
T/C (dose: 33.0 mg/kg/injection, schedule: Q01DX009 (ip), vehicle: saline): 213 % of control
T/C (dose: 40.0 mg/kg/injection, schedule: Q01DX009 (ip), vehicle: saline): 269 % of control
T/C [2]: 204 % of control
T/C (dose: 75.0 mg/kg/injection, schedule: Q01DX009 (ip), vehicle: saline): 95 % of control
T/C (dose: 112.5 mg/kg/injection, schedule: Q01DX001 (ip), vehicle: saline): 184 % of control
T/C (dose: 150.0 mg/kg/injection, schedule: Q01DX001 (ip), vehicle: saline): 225 % of control and 86 % of control

COC1OC2COC(c3ccccc3)OC2C(OC(C)=O)C1OC(C)=O (stereo not drawn)
T/C (dose: 100.0 mg/kg/injection, schedule: Q04DX002 (ip), vehicle: Klucel (hydroxypropylcellulose) (HPC)): 95 % of control
T/C (dose: 200.0 mg/kg/injection, schedule: Q04DX002 (ip), vehicle: Klucel (hydroxypropylcellulose) (HPC)): 117 % of control
T/C (dose: 400.0 mg/kg/injection, schedule: Q04DX002 (ip), vehicle: Klucel (hydroxypropylcellulose) (HPC)): 120 % of control

Cc1c(NS(=O)(=O)c2ccccc2)c(C)c(NS(=O)(=O)c2ccccc2)c(C)c1NS(=O)(=O)c1ccccc1
T/C (dose: 50.0 mg/kg/injection, schedule: Q01DX009 (ip), vehicle: saline with Tween-80): 96 % of control
T/C (dose: 100.0 mg/kg/injection, schedule: Q01DX009 (ip), vehicle: saline with Tween-80): 96 % of control
T/C (dose: 200.0 mg/kg/injection, schedule: Q01DX009 (ip), vehicle: saline with Tween-80): 88 % of control

CN=C(NC)Nc1ccc(NC(=O)c2ccc(C(=O)Nc3ccc(NC(=NC)NC)cc3)cc2)cc1
T/C (dose: 0.8 mg/kg/injection, schedule: Q01DX Z (ip), vehicle: carboxymethylcellulose (CMC)): 97 % of control
T/C (dose: 1.62 mg/kg/injection, schedule: Q01DX Z (ip), vehicle: carboxymethylcellulose (CMC)): 123 % of control
T/C (dose: 1.76 mg/kg/injection, schedule: Q01DX Z (oral), vehicle: carboxymethylcellulose (CMC)): 115 % of control
T/C (dose: 2.68 mg/kg/injection, schedule: Q01DX Z (oral), vehicle: carboxymethylcellulose (CMC)): 109 % of control
T/C (dose: 3.25 mg/kg/injection, schedule: Q01DX Z (ip), vehicle: carboxymethylcellulose (CMC)): 238 % of control
T/C (dose: 4.0 mg/kg/injection, schedule: Q01DX Z (oral), vehicle: carboxymethylcellulose (CMC)): 117 % of control
T/C (dose: 6.0 mg/kg/injection, schedule: Q01DX Z (oral), vehicle: carboxymethylcellulose (CMC)): 108 % of control
T/C (dose: 6.5 mg/kg/injection, schedule: Q01DX Z (ip), vehicle: carboxymethylcellulose (CMC)): 173 % of control and 200 % of control
T/C (dose: 8.0 mg/kg/injection, schedule: Q01DX001 (ip), vehicle: carboxymethylcellulose (CMC)): 113 % of control
T/C (dose: 8.0 mg/kg/injection, schedule: Q01DX001 (ip), vehicle: other): 107 % of control
T/C (dose: 11.0 mg/kg/injection, schedule: Q01DX001 (ip), vehicle: carboxymethylcellulose (CMC)): 122 % of control
T/C (dose: 11.0 mg/kg/injection, schedule: Q01DX001 (ip), vehicle: other): 110 % of control
T/C (dose: 25.0 mg/kg/injection, schedule: Q01DX Z (oral), vehicle: carboxymethylcellulose (CMC)): 103 % of control
T/C (dose: 26.0 mg/kg/injection, schedule: Q01DX Z (ip), vehicle: carboxymethylcellulose (CMC)): 104 % of control
T/C (dose: 39.0 mg/kg/injection, schedule: Q01DX001 (ip), vehicle: other): 155 % of control
T/C (dose: 40.0 mg/kg/injection, schedule: Q01DX001 (ip), vehicle: carboxymethylcellulose (CMC)): 152 % of control
T/C (dose: 40.0 mg/kg/injection, schedule: Q01DX001 (ip), vehicle: other): 153 % of control
T/C (dose: 50.0 mg/kg/injection, schedule: Q01DX Z (oral), vehicle: carboxymethylcellulose (CMC)): 105 % of control
T/C (dose: 53.0 mg/kg/injection, schedule: Q01DX Z (ip), vehicle: carboxymethylcellulose (CMC)): 87 % of control
T/C (dose: 60.0 mg/kg/injection, schedule: Q01DX001 (ip), vehicle: carboxymethylcellulose (CMC)): 214 % of control
T/C (dose: 60.0 mg/kg/injection, schedule: Q01DX001 (ip), vehicle: other): 192 % of control
T/C (dose: 90.0 mg/kg/injection, schedule: Q01DX001 (ip), vehicle: carboxymethylcellulose (CMC)): 234 % of control
T/C (dose: 90.0 mg/kg/injection, schedule: Q01DX001 (ip), vehicle: other): 236 % of control
T/C (dose: 100.0 mg/kg/injection, schedule: Q01DX Z (oral), vehicle: carboxymethylcellulose (CMC)): 103 % of control
T/C (dose: 200.0 mg/kg/injection, schedule: Q01DX Z (oral), vehicle: carboxymethylcellulose (CMC)): 102 % of control

O=C(O)CCc1ccccc1-c1ccccc1
T/C (dose: 50.0 mg/kg/injection, schedule: Q04DX002 (ip), vehicle: saline with Tween-80): 96 % of control
T/C (dose: 100.0 mg/kg/injection, schedule: Q04DX002 (ip), vehicle: saline with Tween-80): 101 % of control
T/C (dose: 200.0 mg/kg/injection, schedule: Q04DX002 (ip), vehicle: saline with Tween-80): 96 % of control
T/C (dose: 400.0 mg/kg/injection, schedule: Q04DX002 (ip), vehicle: saline with Tween-80): 107 % of control

N/C(=N\Cl)C(Cl)(Cl)Cl
T/C (dose: 12.5 mg/kg/injection, schedule: Q04DX003 (ip), vehicle: saline with Tween-80): 103 % of control
T/C (dose: 25.0 mg/kg/injection, schedule: Q04DX003 (ip), vehicle: saline with Tween-80): 103 % of control
T/C (dose: 50.0 mg/kg/injection, schedule: Q04DX003 (ip), vehicle: saline with Tween-80): 103 % of control

CCOC(=O)/C=C(\C)OCC
T/C (dose: 25.0 mg/kg/injection, schedule: Q01DX009 (ip), vehicle: saline): 106 % of control
T/C [2]: 109 % of control
T/C (dose: 100.0 mg/kg/injection, schedule: Q01DX009 (ip), vehicle: saline): 109 % of control
T/C (dose: 200.0 mg/kg/injection, schedule: Q01DX009 (ip), vehicle: saline): 111 % of control
T/C (dose: 400.0 mg/kg/injection, schedule: Q01DX009 (ip), vehicle: saline): 104 % of control

O=C(OC(=Nc1ccc([N+](=O)[O-])cc1)c1cc(N2CCCC2)ccn1)c1ccc(-c2ccccc2)cc1
T/C [1]: 98 % of control
T/C (dose: 200.0 mg/kg/injection, schedule: Q01DX001 (ip), vehicle: saline): 97 % of control
T/C (dose: 400.0 mg/kg/injection, schedule: Q01DX001 (ip), vehicle: saline): 92 % of control
